Common to all, as to assay: inhibition of tumour cell growth, NCI panel, 48 h
The subject of test [1] is A498 renal.
The subject of test [2] is HCT-116 colon.
Test [3] relates to HS 578T breast.
Test [4] relates to IGROV1 ovarian.
Test [5] relates to NCI-H23 lung.
The test system of test [6] is NCI-H460 lung.
Test [7] relates to NCI/ADR-RES ovarian.
Test [8] has as its system OVCAR-5 ovarian.
Test [9] relates to RXF 393 renal.
Test [10] relates to SK-MEL-2 melanoma.

Where “and” joins values, the source holds several entries; their conditions need not be identical. Equal entries are not always repeated.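 The compound was tested at five concentrations on cells cultured in 96-well plates, with a 48-hour exposure period. Here, GI50 denotes the concentration required for 50% inhibition of growth. Definition used: TGI = concentration required for complete inhibition of growth.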 Where only a bound is given, the exact number is not on record here.

For the molecule `C=CC(=O)NCCOc1cccc(Nc2cc(NCCCNC(=O)C3CCC3)c(Br)cn2)c1`, the GI50 in test [1] was 0.52 µM; in [2] it was 0.798 µM; in test [3], 0.567 µM; in test [4], 0.963 µM; in [5], 1.07 µM; in test [6], 1.12 µM. The GI50 in test [7] was 8.74 µM; in test [8] it was 1.84 µM; in test [9], 0.283 µM; in test [10] it was 2.62 µM. The TGI in [1] was 1.8 µM; in [2], greater than 25 µM; in [3], 1.7 µM; in test [4] it was 12.9 µM; in [5], 7.16 µM; in [6], 4.53 µM. Moreover, the TGI in [7] was greater than 25 µM; in test [8], 10.5 µM; in test [9], 0.639 µM; in [10], 6.55 µM.
Take `NC(=O)c1ccc2nc(-c3ccc(C4(N)CCC4)cc3)c(-c3ccccc3)n2n1`: the GI50 in [1] was 0.0734 µM; in test [2] it was 10.2 µM; in test [3], 0.863 µM; in [4], 0.0886 µM; in [5], 16.4 µM; in [6], 2.15 µM. The GI50 is 15.1 µM in [7], 12.5 µM in test [8], 0.335 µM in [9] and 15.2 µM in [10]. In addition, the TGI was 0.642 µM in test [1]; 22.6 µM in test [2]; 10 µM in [3]; 10.7 µM in [4]; 51.8 µM in test [5]; 19.4 µM in test [6]. In addition, the TGI in test [7] worked out at 41.2 µM; in test [8], 47 µM; in [9], 4.13 µM; in test [10] it was 31.5 µM.
As to `O=C(C[C@@]1(O)C(=O)Nc2c(Cl)ccc(Cl)c21)c1ccc(C2CC2)cc1`, the GI50 in [1] was 0.213 µM; in test [2], 0.437 µM; in test [3], 0.305 µM; in [4], 0.446 µM; in test [5], 0.634 µM; in [6], 0.359 µM. For the same molecule, the GI50 is 0.212 µM in test [7], 1.17 µM in test [8], 0.257 µM in test [9] and 0.515 µM in [10]. Besides, the TGI in test [1] was determined as 0.75 µM; in test [2], 11.9 µM; in test [3], 10 µM; in test [4] it was 13.6 µM; in test [5], 19.3 µM; in test [6] it was 11.4 µM. In addition, the TGI in [7] came out at 13.9 µM; in test [8], 17.5 µM; in [9], 4.03 µM; in test [10] it was 18 µM.
With `S=c1nc[nH]c2nc[nH]c12`, the GI50 was 104 µM in [1]; 5.4 µM in [2]; 9.62 µM and 30.8 µM in [3]; 23.3 µM in test [4]; 3.11 µM and 7.97 µM in test [5]; 4.74 µM in test [6]. Further, the GI50 is 5.75 µM and > 32.3 µM in test [8]; > 100 µM and 26.2 µM in [10]. Moreover, the TGI in test [1] was 584 µM and 187 µM; in test [2], > 100 µM and 710 µM and > 750 µM; in [3], > 100 µM and 561 µM and > 612 µM; in test [4], > 100 µM and 695 µM and > 750 µM; in test [5], > 100 µM and 271 µM and > 750 µM; in [6], greater than 730 µM. The TGI in [7] is greater than 735 µM; in test [8] it was > 100 µM and 651 µM and > 750 µM; in [9], > 100 µM and 629 µM and > 750 µM; in test [10], > 100 µM and 664 µM and > 750 µM.
For `Cc1cc(Nc2cc(CN3CCOCC3)c3nc(C)c(Cc4ccc(Cl)cc4F)n3n2)n[nH]1`, the GI50 was 0.288 µM in test [1]; 0.689 µM in test [2]; 0.915 µM in [3]; 2.15 µM in test [4]; 1.72 µM in test [5]; 0.437 µM in [6]. Besides, the GI50 was 4.28 µM in [7], 1.8 µM in [8], 0.545 µM in [9] and 2.37 µM in [10]. In addition, the TGI amounted to 1.1 µM in test [1]; 2.65 µM in test [2]; 5.6 µM in test [3]; 5.57 µM in [4]; 8.35 µM in [5]; 6.63 µM in [6]. Besides, the TGI in [7] was 18.7 µM; in test [8] it was 7.03 µM; in [9], 2.13 µM; in test [10], 7.64 µM.
For `Cc1ccc(Nc2[nH]c(C(=O)c3ccc(Cl)cc3)c(N)c2C(=S)Nc2ccccc2)nc1`, the GI50 in [1] was 23.4 µM; in test [2], 42.8 µM; in [3], 21.8 µM; in test [4] it was 31.3 µM; in [5], 35.1 µM; in test [6], 23.9 µM. Further, the GI50 in test [7] was 15.9 µM; in test [8] it was 33.1 µM; in [9] it was 35.9 µM; in test [10], 28.1 µM. Besides, the TGI is 61.8 µM in test [1]; greater than 100 µM in test [2]; 76.2 µM in test [3]; greater than 100 µM in test [4]; greater than 100 µM in [5]; greater than 100 µM in [6]. Moreover, the TGI in test [7] was 87.7 µM; in [8], greater than 100 µM; in [9] it was greater than 100 µM; in test [10], greater than 100 µM.
With `COc1ccc2[nH]c(-c3ccccc3)c(C=C(C#N)C#N)c2c1`, the GI50 in [1] is 2.01 µM; in test [2], 4.37 µM; in test [3], 2.35 µM; in test [4] it was 8.35 µM; in [5] it was 4.08 µM; in [6], 3.56 µM. Moreover, the GI50 in [7] is 2.79 µM; in test [8], 44.2 µM; in [9], 9.82 µM; in test [10], 5.87 µM. The TGI was 6.22 µM in test [1]; greater than 100 µM in test [2]; 25.4 µM in test [3]; greater than 100 µM in test [4]; greater than 100 µM in [5]; greater than 100 µM in test [6]. For the same molecule, the TGI was 14 µM in test [7], greater than 100 µM in test [8], greater than 100 µM in test [9] and greater than 100 µM in test [10].

Source of the values: PubChem BioAssay (NCI).
